In data set [1] the test system is Septoria tritici. Nature of the data set: Tests N1 and N2: growth inhibition of Septoria tritici on solid medium in 96-well plates, absorbance at 600 nm, observed and Colby expected. Conditions: Zymoseptoria tritici. In kind it is cell-based. The source says: Tests N1 and N2 involved evaluation of mixtures of Compound 81 with 2-[(3-bromo-8-methyl-6-quinolinyl)oxy]-N-(1,1-dimethyl-2-propyn-1-yl)-2-(methylthio)acetamide (Compound A1) and 2-[(3-bromo-6-quinolinyl)oxy]-N-(1,1-dimethylethyl)butanamide (Compound A2), respectively, for inhibiting the growth of Septoria tritici (the causal agent of wheat leaf blotch). The general protocol for preparing test compositions was as follows. Compound 81 (Tests N1 and N2), Compound A1 (Test N1) and Compound A2 (Test N2) were obtained as unformulated, technical-grade materials. Unformulated test compounds were first dissolved in DMSO at the appropriate concentration to provide the desired concentration (in μM) after mixing with the fungal growth medium in the wells of 96-well plates containing 200 μL fungal growth medium per well. The ranges of compound concentrations were chosen to span a range of inhibitory activity from 0 to near 100% to identify any synergistic action when Septoria tritici was treated with compounds added in combination. The DMSO solutions of the test compounds were added to the wells prior to addition of the fungal growth medium.
The fungal growth solid medium was prepared by forming an aqueous mixture containing dipotassium hydrogen phosphate (3.0 g/L), potassium dihydrogen phosphate (4.0 g/L), sodium chloride (0.5 g/L), ammonium chloride (1.0 g/L), magnesium sulfate heptahydrate ([…]) and calcium chloride dihydrate (0.01 g/L), also containing 1 mL/L of a trace element solution (manganese sulfate hydrate (0.1 mg/mL), zinc sulfate heptahydrate (0.2 mg/mL), copper(II) sulfate pentahydrate (0.2 mg/mL), iron(II) sulfate heptahydrate (0.2 mg/mL), sodium molybdate dihydrate (0.1 mg/mL), cobalt(II) sulfate heptahydrate (0.06 mg/mL), boric acid (0.08 mg/mL)), and supplemented with 50 μL/L of a biotin stock solution (0.1 mg/mL). The pH was adjusted to 6.8 with aqueous 1 M sodium carbonate solution. The mixture was further supplemented with 1 g/L of yeast extract, and GELRITE gellan gum (Kelco) (4 g/L) was added. Sufficient water was added to bring the volume to 90% of final volume (e.g., 900 mL volume for preparation of 1 L of fungal growth medium). The mixture was autoclaved. On cooling to 60° C., 100 mL/L of aqueous dextrose solution (10 g/L), 500 μL/L of aqueous ampicillin solution (100 mg/mL) and 500 μL/L of rifampicin solution (10 mg/mL in DMSO) were added to provide the final volume of fungal growth medium, which was then dispensed while still warm using a microliter pipette to the wells of the 96-well plates. The dispensed fungal growth medium in each well was agitated using the tip of the dispensing pipette to mix it with the DMSO solution containing the test compounds.
After the fungal growth medium in the wells had cooled to room temperature and solidified, the top surface of the growth medium in each well was inoculated with 20 μL of a suspension of fungus containing 8×10^4 cells. Following a 2 h period of drying in a sterile hood, plates were placed in a dark incubator at 25° C. for 5 d.
Fungal growth was assessed on a plate reader set to measure absorbance of 600 nm light. The percent growth inhibition observed (Obsd.) in Tests N1 and N2, as well as the percent growth inhibition expected (Exp.) from calculation using the Colby equation, are listed in Tables L and M, respectively.

Data set [2] has as its system Blumeria graminis f. sp. tritici. Description: Test I: wheat powdery mildew, preventive spray on wheat seedlings, visual disease rating. Conditions: 100 = 100% disease control; for pest or weed control at 200 µg/mL: Blumeria graminis, in Triticum aestivum, read-out: Test I rating (disease control), wheat powdery mildew; for pest or weed control at 200 µg/mL / Test I rating (disease control): 0 = no disease control relative to the controls.

Data set [3] deals with Septoria tritici. Description: Test F: wheat leaf blotch, preventive spray on wheat seedlings, visual disease rating. In kind it is in vivo. Conditions: 100 = 100% disease control; for pest or weed control at 200 µg/mL: Zymoseptoria tritici; for pest or weed control at 200 µg/mL / Test F rating (disease control): 0 = no disease control relative to the controls. The source says:
(§1) A hyphen (-) indicates no test results.

A further data set concerns Septoria nodorum. Nature of the data set: Test E: Septoria glume blotch, preventive spray on wheat seedlings, visual disease rating. Conditions: 100 = 100% disease control; for pest or weed control at 200 µg/mL: Parastagonospora nodorum, in Triticum aestivum, read-out: Test E rating (disease control), Septoria glume blotch; for pest or weed control at 200 µg/mL / Test E rating (disease control): 0 = no disease control relative to the controls; for Test E rating (disease control): Septoria glume blotch.

The subject of a further data set is Alternaria solani. Description: Test B: tomato early blight, preventive spray on tomato seedlings, visual disease rating. The following applies: for pest or weed control at 200 µg/mL: Alternaria solani, in Solanum lycopersicum, read-out: Test B rating (disease control); for Test B rating (disease control): 0 = no disease control relative to the controls.
The next data set has as its system Phytophthora infestans. Nature of the data set: whole plant or invertebrate. In kind it is in vivo. Conditions: for pest or weed control at 200 µg/mL: Phytophthora infestans, in Solanum lycopersicum, read-out: Test C rating (disease control); for Test C rating (disease control): 0 = no disease control relative to the controls.
Data set [4] deals with Puccinia recondita f. sp. tritici. Nature of the data set: Test H: wheat leaf rust, preventive spray on wheat seedlings, visual disease rating. The following applies: 100 = 100% disease control; for pest or weed control at 200 µg/mL: read-out: Test H rating (disease control), wheat leaf rust, sprayed the day before inoculation; for pest or weed control at 200 µg/mL / Test H rating (disease control): 0 = no disease control; for Test H rating (disease control): sprayed the day before inoculation.
Method: (§2) General protocol for preparing test suspensions for Tests A-I: the test compounds were first dissolved in acetone in an amount equal to 3% of the final volume and then suspended at the desired concentration (in ppm) in acetone and purified water (50/50 mix by volume) containing 250 ppm of the surfactant Trem® 014 (polyhydric alcohol esters). The resulting test suspensions were then used in Tests A-I. Each test was conducted in triplicate, and the results were averaged. Spraying a 200 ppm test suspension to the point of run-off on the test plants was the equivalent of a rate of about 800 g/ha. Unless otherwise indicated, the rating values indicate a 200 ppm test suspension was used. (An asterisk “*” next to the rating value indicates a 40 ppm test suspension was used.)
The test suspension was sprayed to the point of run-off on wheat seedlings. The following day the seedlings were inoculated with a spore suspension of Puccinia recondita f. sp. tritici (the causal agent of wheat leaf rust) and incubated in a saturated atmosphere at 20° C. for 24 h, and then moved to a growth chamber at 20° C. for 6 days, after which time visual disease ratings were made.

For data set [5] the test system is unchanged. Nature of the data set: Test G: wheat leaf rust, spray after inoculation (curative) on wheat seedlings, visual disease rating. The data set is classed as in vivo. The following applies: 100 = 100% disease control; for pest or weed control at 200 µg/mL / Test G rating (disease control): sprayed after inoculation, 0 = no disease control.
Source text: as §1

The next data set has as its system Botrytis cinerea. Description: Test A: tomato Botrytis, preventive spray on tomato seedlings, visual disease rating. The following applies: 100 = 100% disease control; for pest or weed control at 200 µg/mL: Botrytis cinerea, in Solanum lycopersicum, read-out: Test A rating (disease control), tomato Botrytis; for pest or weed control at 200 µg/mL / Test A rating (disease control): 0 = no disease control relative to the controls.

Where [6] appears, read: tomato early blight, 100 = 100% disease control.
Setting [7] is: tomato late blight, 100 = 100% disease control.

As a reminder, the inhibition is the share of the control response that was lost under treatment. What is called melting point is the temperature of the solid-liquid transition.

Method for Alternaria solani: as §2
The test suspension was sprayed to the point of run-off on tomato seedlings. The following day the seedlings were inoculated with a spore suspension of Alternaria solani (the causal agent of tomato early blight) and incubated in a saturated atmosphere at 27° C. for 48 h, and then moved to a growth chamber at 20° C. for 5 days, after which time visual disease ratings were made.

`C#CC(C)(C)NC(=O)C(Oc1cc(C)c2ncc(Br)cc2c1)SC` (stereo not shown) [Compound A1, 2-[(3-bromo-8-methyl-6-quinolinyl)oxy]-N-(1,1-dimethyl-2-propyn-1-yl)-2-(methylthio)acetamide, reference compound]: in the data set on Septoria tritici [1] (Compound A1 alone 0.00032 μM, read-out: % inhibition Obsd. (Test N1)), the inhibition at 0.00032 µM came to 3%. Moreover, in the data set on Septoria tritici [1] (Compound A1 alone 0.0016 μM, read-out: % inhibition Obsd. (Test N1)), the inhibition at 0.0016 µM was 5%. In addition, the inhibition at 0.008 µM with Septoria tritici [1] (Compound A1 alone 0.008 μM, read-out: % inhibition Obsd. (Test N1)) is 14.5%. Moreover, the inhibition at 0.04 µM in the data set on Septoria tritici [1] (Compound A1 alone 0.04 μM, read-out: % inhibition Obsd. (Test N1)) stood at 97%. The inhibition at 0.2 µM with Septoria tritici [1] (Compound A1 alone 0.2 μM, read-out: % inhibition Obsd. (Test N1)) came out at 98%.
With `CCC(Oc1ccc2ncc(Br)cc2c1)C(=O)NC(C)(C)C` (stereo not shown) [Compound A2, 2-[(3-bromo-6-quinolinyl)oxy]-N-(1,1-dimethylethyl)butanamide, reference compound], the inhibition at 0.032 µM with Septoria tritici [1] (Compound A2 alone 0.032 μM, read-out: % inhibition Obsd. (Test N2)) came to 0%. Further, the inhibition at 0.16 µM in the data set on Septoria tritici [1] (Compound A2 alone 0.16 μM, read-out: % inhibition Obsd. (Test N2)) came out at 6.5%. Besides, the inhibition at 0.8 µM with Septoria tritici [1] (Compound A2 alone 0.8 μM, read-out: % inhibition Obsd. (Test N2)) was found to be 11.5%. In addition, the inhibition at 4 µM in the data set on Septoria tritici [1] (Compound A2 alone 4 μM, read-out: % inhibition Obsd. (Test N2)) amounted to 95%. Also, the inhibition at 20 µM in the data set with Septoria tritici [1] (Compound A2 alone 20 μM, read-out: % inhibition Obsd. (Test N2)) was 96%.
`Cc1nn(C)c(Nc2c(F)cccc2Br)c1-c1c(F)cccc1F` [Compound 247, N-(2-bromo-6-fluorophenyl)-4-(2,6-difluorophenyl)-1,3-dimethyl-1H-pyrazol-5-amine] registered a melting point of 127 to 129 °C.
The same measure, in the same setting: to `Cc1nn(C)c(Nc2c(F)cccc2Br)c1-c1ccc(F)cc1Br` [Compound 244, 4-(2-bromo-4-fluorophenyl)-N-(2-bromo-6-fluorophenyl)-1,3-dimethyl-1H-pyrazol-5-amine] belongs 154 to 156 °C.
Same read-out and setting: to `Cc1nn(C)c(Nc2c(F)cc(F)cc2Cl)c1-c1ccc(C#N)cc1F` [Compound 238, 4-[5-[(2-chloro-4,6-difluorophenyl)amino]-1,3-dimethyl-1H-pyrazol-4-yl]-3-fluorobenzonitrile] belongs 177 to 179 °C.
Turning to `Cc1nn(C)c(Nc2c(Cl)cc(F)cc2Cl)c1-c1c(F)cccc1F` [Compound 142, N-(2,6-dichloro-4-fluorophenyl)-4-(2,6-difluorophenyl)-1,3-dimethyl-1H-pyrazol-5-amine], the pest or weed control at 200 µg/mL in data set [2] amounted to 100%; in the data set with Septoria tritici [3], 100%; with Septoria nodorum, 92%; with Alternaria solani, 96%; with Phytophthora infestans, 0%; in data set [4] it was 100%. For the same molecule, the pest or weed control at 200 µg/mL in data set [5] is 0%; in the data set with Botrytis cinerea it was 100%.
For `Cc1nn(C)c(Nc2ccc(C#N)cc2F)c1-c1c(F)cccc1F` [compound 59], the “Test I rating (disease control)” value in [2] (wheat powdery mildew) amounted to 98%. Also, in the data set with Septoria tritici [3], the “Test F rating (disease control)” value was 100%. For the same molecule, the “Test E rating (disease control)” value in the data set with Septoria nodorum was 73%. In addition, the “Test B rating (disease control)” value in the data set on Alternaria solani (setting [6]) came out at 94%. In the data set with Phytophthora infestans (setting [7]), the “Test C rating (disease control)” value is recorded as 0%. Moreover, the “Test H rating (disease control)” value in [4] (wheat leaf rust) is 98%. Besides, the “Test G rating (disease control)” value in [5] is on record as 9%. Also, the “Test A rating (disease control)” value with Botrytis cinerea (tomato Botrytis) was 99%.
As to `Cc1nn(C)c(Nc2c(F)cc(Cl)cc2Cl)c1-c1ccc(F)cc1Cl` [Compound 136, 4-(2-chloro-4-fluorophenyl)-N-(2,4-dichloro-6-fluorophenyl)-1,3-dimethyl-1H-pyrazol-5-amine], the pest or weed control at 200 µg/mL in data set [2] amounted to 100%; in the data set with Septoria tritici [3], 100%; with Septoria nodorum, 100%; with Alternaria solani, 100%; with Phytophthora infestans, 0%; in data set [4], 100%. Further, the pest or weed control at 200 µg/mL (in data set [5]; in the data set with Botrytis cinerea) was 100% each time.
Consider `Cc1nn(C)c(Nc2c(Cl)cc(Cl)cc2Cl)c1-c1ccc(F)cc1F` [compound 165], for which the “Test I rating (disease control)” value in data set [2] (wheat powdery mildew) is reported as 99%. In addition, in the data set on Septoria tritici [3], the “Test F rating (disease control)” value is recorded as 100%. Further, the “Test E rating (disease control)” value in the data set on Septoria nodorum came out at 0%. Further, in the data set with Alternaria solani (setting [6]), the “Test B rating (disease control)” value is recorded as 0%. For the same molecule, the “Test C rating (disease control)” value with Phytophthora infestans (setting [7]) was 0%. Besides, in data set [4] (wheat leaf rust), the “Test H rating (disease control)” value amounted to 99%. Moreover, in data set [5], the “Test G rating (disease control)” value is listed as 67%. Besides, in the data set on Botrytis cinerea (tomato Botrytis), the “Test A rating (disease control)” value is recorded as 100%.
Take `Cc1nn(C)c(Oc2c(F)cc(C#N)cc2F)c1-c1ccc(F)cc1F` [compound 45]: in data set [2] (wheat powdery mildew), the “Test I rating (disease control)” value stood at 99%. In addition, the “Test F rating (disease control)” value in the data set with Septoria tritici [3] is given as 98%. In addition, the “Test E rating (disease control)” value in the data set on Septoria nodorum is 99%. In the data set on Alternaria solani (setting [6]), the “Test B rating (disease control)” value turned out to be 99%. For the same molecule, the “Test C rating (disease control)” value in the data set on Phytophthora infestans (setting [7]) came to 0%. For the same molecule, in data set [4] (wheat leaf rust), the “Test H rating (disease control)” value was determined as 100%. In data set [5], the “Test G rating (disease control)” value amounted to 0%. In addition, in the data set with Botrytis cinerea (tomato Botrytis), the “Test A rating (disease control)” value is reported as 100%.
On to `CCOc1cc(F)c(-c2c(C)nn(C)c2Nc2c(F)cc(Cl)cc2F)c(F)c1` [compound 199], for which the “Test I rating (% disease control)” value in [2] (wheat powdery mildew, preventive spray, rating without asterisk) is recorded as 99%. Further, in the data set with Septoria tritici [3] (preventive spray, rating without asterisk), the “Test F rating (% disease control)” value is reported as 100%. The “Test E rating (% disease control)” value in the data set on Septoria nodorum (Septoria glume blotch on wheat, preventive spray, rating without asterisk) was 69%. Also, in the data set with Alternaria solani (tomato early blight, preventive spray, 100 = 100% disease control, rating without asterisk), the “Test B rating (% disease control)” value came out at 100%. In the data set with Phytophthora infestans (tomato late blight, preventive spray, 100 = 100% disease control, rating without asterisk), the “Test C rating (% disease control)” value is recorded as 68%. Further, in data set [4] (wheat leaf rust, preventive spray, rating without asterisk), the “Test H rating (% disease control)” value was found to be 83%. For the same molecule, in [5] (spray after inoculation, rating without asterisk), the “Test G rating (% disease control)” value is 0%. Besides, the “Test A rating (% disease control)” value with Botrytis cinerea (tomato Botrytis, preventive spray, 0 = no control relative to controls, rating without asterisk) is on record as 100%.
